Like-named read-outs stand apart in the source and are kept apart here.
Experiments:
Experiment in all cases: PTP IC50 assay, pNPP or FDP as substrate
Assay type in all cases: biochemical
[1] = target: T1, PTP EPSILON (Homo sapiens, UniProt P23469)
T1 construct: made in house; host or cells: Sf-9 insect cells (pFastBac-G2T); a pGEX 6P-1 construct also existed
Description: (§1) The following in vitro assay procedure is preferred to determine the level of activity and effect of the different compounds of the present invention on one or more of the PTPs. Similar assays can be designed along the same lines for any PTP using techniques well known in the art.
(§2) The catalytic assays described herein are performed in a 96-well format. The general procedure begins with the determination of PTP optimal pH using a three-component buffer system that minimizes ionic strength variations across a wide range of buffer pH. Next, the Michaelis-Menten constant, or Km, is determined for each specific substrate-PTP system. This Km value is subsequently used as the substrate reaction concentration for compound screening. Finally, the test PTP is exposed to varying concentrations of compound for fifteen minutes and allowed to react with substrate for ten minutes. The results are plotted as percent inhibition versus compound concentration and the IC50 interpolated from the plot.
(§3) All assays were performed using pNPP or FDP as substrate. The optimum pH was determined for each PTP used.
(§4) PTPase activity was assayed at 25° C. in a 100-μl reaction mixture containing an appropriate concentration of pNPP or FDP as substrate. The reaction was initiated by addition of the PTP and quenched after 10 min by addition of 50 μl of IN NaOH. The non-enzymatic hydrolysis of the substrate was corrected by measuring the control without the addition of the enzyme. The amount of p-nitrophenol produced was determined from the absorbance at 410 nm. To determine the kinetic parameter, Km, the initial velocities were measured at various substrate concentrations and the data were fitted to the Michaelis equation where velocity=(Vmax*[S])/(Km+[S]), and [S]=substrate reaction concentration.
(§5) The effect of the compounds on PTP was evaluated at 25° C. using pNPP or FDP as substrate. PTP was pre-incubated for fifteen minutes with various concentrations of compound. Substrate was then added at a fixed concentration (usually equal to the Km previously calculated). After 10 minutes, NaOH was added to stop the reaction. The hydrolysis of pNPP was followed at 410 nm on the Biotek Powerwave 200 microplate scanning spectrophotometer. The percent inhibition was calculated as follows: Percent Inhibition=[(control signal−compound signal)/control signal] ×100%. The IC50 was then determined by interpolation of a percent inhibition versus compound concentration plot.
(§6) Plasmids designed for bacterial GST-PTP fusion protein expression were derived by insertion of PCR-generated human PTP fragments into pGEX vectors (Pharmacia Biotech). Several of these constructs were then used to subclone phosphatases into pFastBac-1for expression in Sf-9 insect cells. Oligonucleotides used for the initial amplification of PTP genes are shown below. The cDNAs were prepared using the Gilbo BRL superscript preamplification system on RNAs purchased from Clontech.
The PTPepsilon cDNA was amplified from human placenta single-strand cDNA (Clontech RNA) using the following oligonucleotides: 5′oligo: 5′-[…]-3′ (SEQ ID NO: 6) 3′oligo: 5′-[…]-3′ (SEQ ID NO: 7) After cloning this PCR product into the Bam HI/Xho I sites of pGEX 6P-1, this phosphatase was subcloned using the same restriction sites in pFastBac-G2T.

[2] = target: T2, PTP MEG2 (Homo sapiens, UniProt P43378)
T2 construct: made in house; host or cells: E. coli BL-21 (pGEX 6P-1)
T2 sequence (P43378 262-593 limits assumed): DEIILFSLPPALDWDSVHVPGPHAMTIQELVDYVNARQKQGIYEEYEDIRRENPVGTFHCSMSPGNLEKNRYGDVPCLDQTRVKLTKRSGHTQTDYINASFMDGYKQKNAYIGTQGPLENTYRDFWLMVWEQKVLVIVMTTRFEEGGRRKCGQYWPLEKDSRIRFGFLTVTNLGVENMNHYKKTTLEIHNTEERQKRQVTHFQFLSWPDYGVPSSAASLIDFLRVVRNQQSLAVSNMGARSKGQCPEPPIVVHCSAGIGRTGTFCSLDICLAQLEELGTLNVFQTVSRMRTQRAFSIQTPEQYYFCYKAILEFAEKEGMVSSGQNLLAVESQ
Description: as §1, §2, §3, §4, §5, §6
The PTP MEG2 cDNA was amplified from human placenta single strand cDNA (Clontech RNA) using the following oligonucleotides: 5′oligo: 5′-[…]-3′ (SEQ ID NO: 8) 3′oligo: 5′-[…]-3′ (SEQ ID NO: 9) and subsequently ligated into pGex 6P-1 Eco RI/Xho I sites.

[3] = target: T3, PTP BETA (Homo sapiens, UniProt P23467)
T3 construct: The catalytic domain was amplified using the following oligonucleotides; made in house; host or cells: E. coli BL-21 (pGEX 6P-1)
Description: as §1, §2, §3, §4, §5, §6
The PTP Beta cDNA used has been described earlier (Levy et al., 1993, J. Biol. Chem, 268:10573-10581). The catalytic domain was amplified using the following oligonucleotides: 5′oligo: 5′-[…]-3′ (SEQ ID NO: 16) 3′oligo: 5′-[…]-3′ (SEQ ID NO: 17) and subsequently cloned into the Eco RI/Xho I sites of pGEX 6P-1.

[4] = target: T4, PTP ALPHA (Homo sapiens, UniProt P18433); conditions: 25° C.
T4 construct: RTPα intracellular domain construct was obtained; made in house; host or cells: E. coli BL-21 (pGEX 3X)
Description: as §1, §2, §3, §4, §5, §6
RTPα intracellular domain construct was obtained, Schlessinger et al., U.S. Pat. No. 5,888,794, the contents of which are hereby incorporated in their entirety into the present application. The RTPα fragment was cloned into pGEX 3× using the following procedure. The portion from EclX I/Xma III/Eag I (N-terminus blunted by Klenow) to Eco RV was cloned into the Sma I site. The EclX I site is approximately 15 residues downstream of the transmembrane domain.

[5] = pNPP or FDP as substrate, 25° C., read-out: PTP IC50 Epilson
[6] = pNPP or FDP as substrate, 25° C., read-out: PTP IC50 MEG2
[7] = pNPP or FDP as substrate, 25° C., read-out: PTP IC50 Beta
[8] = comparison of R groups, read-out: IC50 Epsilon
[9] = comparison of R groups, read-out: IC50 MEG2
[10] = comparison of R groups, read-out: IC50 Beta

T3 sequence (P23467 1653-1997): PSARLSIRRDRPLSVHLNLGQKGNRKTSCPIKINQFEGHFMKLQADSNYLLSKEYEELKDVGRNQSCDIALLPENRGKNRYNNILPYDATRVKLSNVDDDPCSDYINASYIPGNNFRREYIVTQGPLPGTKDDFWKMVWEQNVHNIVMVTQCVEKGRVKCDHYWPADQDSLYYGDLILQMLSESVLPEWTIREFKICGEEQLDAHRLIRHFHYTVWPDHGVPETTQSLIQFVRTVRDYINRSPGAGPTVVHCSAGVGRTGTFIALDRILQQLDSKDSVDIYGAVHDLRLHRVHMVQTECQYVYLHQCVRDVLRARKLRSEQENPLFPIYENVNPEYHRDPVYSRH
T1 sequence (P23469 80-393 limits assumed): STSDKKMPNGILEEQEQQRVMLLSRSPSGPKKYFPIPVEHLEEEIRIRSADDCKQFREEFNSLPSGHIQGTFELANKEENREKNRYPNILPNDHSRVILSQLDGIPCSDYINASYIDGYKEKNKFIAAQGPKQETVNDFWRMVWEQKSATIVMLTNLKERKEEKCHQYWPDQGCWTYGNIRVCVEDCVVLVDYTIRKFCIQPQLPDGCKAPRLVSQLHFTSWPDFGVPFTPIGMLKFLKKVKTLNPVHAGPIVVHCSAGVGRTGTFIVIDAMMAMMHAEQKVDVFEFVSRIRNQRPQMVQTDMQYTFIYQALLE

Compound | IC50 [1, 5] [µM] | IC50 [2, 6] [µM] | IC50 [3, 7] [µM] | IC50 [1, 8] [µM] | IC50 [2, 9] [µM] | IC50 [3, 10] [µM] | IC50 [4] [µM]
1-(4-Aminophenoxy)-4-trifluoromethylsulfonamidophenoxy benzene [Example 72] | 48.3 | > 100 | 22.7 | – | – | – | –
O=[N+]([O-])c1cc(S(=O)(=O)C(F)(F)F)ccc1OC1CCC(Oc2ccc(S(=O)(=O)C(F)(F)F)cc2[N+](=O)[O-])C1 (mixture of isomers) [Example 12, 1,3-Bis-(2-nitro-4-trifluoromethanesulfonyl-phenoxy)-cyclopentane] | > 100 | > 100 | 17.9 | – | – | – | –
CS(=O)(=O)Nc1ccc(Oc2ccc(Oc3ccc(NS(C)(=O)=O)cc3)cc2)cc1 [CH3SO2NH—] | – | – | – | 51.4 | > 100 | 62.6 | –
O=S(=O)(c1ccc(COCc2ccc(S(=O)(=O)C(F)(F)F)cc2)cc1)C(F)(F)F [Example 1, Bis (4-trifluoromethylsulfonylbenzyl) ether] | 24.3 | 55 | 5.9 | – | – | – | > 100
O=S(=O)(c1ccc(COc2ccc(S(=O)(=O)C(F)(F)F)cc2)cc1)C(F)(F)F [Example 2, 4-Trifluoromethylsulfonylbenzyl 4-trifluoromethylsulfonylphenyl ether] | 8.1 | 62.1 | 3.5 | – | – | – | > 100
O=C(c1ccccc1)N(Cc1ccc(S(=O)(=O)C(F)(F)F)cc1)Cc1ccc(S(=O)(=O)C(F)(F)F)cc1 [Example 3, N,N-Bis(4-trifluoromethylsulfonylbenzyl)benzamide] | 28.1 | 85.9 | 17.2 | – | – | – | > 100
O=[N+]([O-])c1cc(S(=O)(=O)C(F)(F)F)ccc1SSc1ccc(S(=O)(=O)C(F)(F)F)cc1[N+](=O)[O-] [Example 8, Bis-(2-nitro-4-trifluoromethylsulfonylphenyl) disulfide] | 53.7 | > 100 | 26.5 | – | – | – | –
COC(=O)c1cc(Oc2ccc(S(=O)(=O)C(F)(F)F)cc2)cc(Oc2ccc(S(=O)(=O)C(F)(F)F)cc2)c1 [Example 9, 3,5-Bis-(4-trifluoromethanesulfonyl-phenoxy)-benzoic acid methyl ester] | > 100 | > 100 | 45.6 | – | – | – | –
COC(=O)Cc1cc(Oc2ccc(S(=O)(=O)C(F)(F)F)cc2[N+](=O)[O-])cc(Oc2ccc(S(=O)(=O)C(F)(F)F)cc2[N+](=O)[O-])c1 [Example 10, [3,5-Bis-(2-nitro-4-trifluoromethanesulfonyl-phenoxy)-phenyl]-acetic acid methyl ester] | 60.8 | > 100 | 20.5 | – | – | – | –
COC(=O)c1cc(Oc2ccc(S(=O)(=O)C(F)(F)F)cc2[N+](=O)[O-])cc(Oc2ccc(S(=O)(=O)C(F)(F)F)cc2[N+](=O)[O-])c1 [Example 11, 3,5-Bis-(2-nitro-4-trifluoromethanesulfonyl-phenoxy)-benzoic acid methyl ester] | 38.7 | > 100 | 11.2 | – | – | – | –
COC(=O)c1c(Oc2ccc(S(=O)(=O)C(F)(F)F)cc2[N+](=O)[O-])cc(C)cc1Oc1ccc(S(=O)(=O)C(F)(F)F)cc1[N+](=O)[O-] [Example 13, 4-Methyl-2,6-bis-(2-nitro-4-trifluoromethanesulfonyl-phenoxy)-benzoic acid methyl ester] | 80.4 | > 100 | 15.1 | – | – | – | –
COC(=O)c1ccc(OCCOc2ccc(S(=O)(=O)C(F)(F)F)cc2[N+](=O)[O-])cc1 [Example 14, 4-[2-(2-nitro-4-trifluoromethanesulfonyl-phenoxy)-ethoxy]-benzoic acid methyl ester] | > 100 | > 100 | 13.4 | – | – | – | –
O=C(O)c1ccc(Oc2cccc(Oc3ccc(S(=O)(=O)C(F)(F)F)cc3[N+](=O)[O-])c2)cc1 [Example 15, 4-[3-(2-Nitro-4-trifluoromethanesulfonyl-phenoxy)-phenoxy]-benzoic acid] | 10 | 21.1 | 10.3 | – | – | – | –
COC(=O)c1cc(Oc2ccc(S(=O)(=O)C(F)(F)F)cc2[N+](=O)[O-])n(-c2cc(C(F)(F)F)cc(C(F)(F)F)c2)n1 [Example 16, 1-(3,5-Bis-trifluoromethyl-phenyl)-5-(2-nitro-4-trifluoromethanesulfonyl-phenoxy)-1H-pyrazole-3-carboxylic acid methyl ester] | 64.7 | 79.5 | 9.6 | – | – | – | –
CCOC(=O)COc1ccc(S(=O)(=O)c2ccc(Oc3ccc(S(=O)(=O)C(F)(F)F)cc3[N+](=O)[O-])cc2)cc1 [Example 17, {4-[4-(2-Nitro-4-trifluoromethanesulfonyl-phenoxy)-benzenesulfonyl]-phenoxy}-acetic acid ethyl ester] | > 100 | 88.5 | 26 | – | – | – | –
O=S(=O)(Nc1ccc(Oc2ccc(NS(=O)(=O)C(F)(F)F)cc2)cc1)C(F)(F)F [Example 73, Bis(4-trifluoromethylsulfonamidophenyl) ether] | 23.1 | > 100 | > 100 | – | – | – | –
O=S(=O)(Nc1ccc(Oc2cccc(Oc3ccc(NS(=O)(=O)C(F)(F)F)cc3)c2)cc1)C(F)(F)F [Example 74, 1,3-Bis(4-trifluoromethylsulfonamidophenoxy)benzene] | 1.8 | 58.7 | 26.6 | – | – | – | –
O=S(=O)(Nc1ccc(-c2nnc(-c3ccc(NS(=O)(=O)C(F)(F)F)cc3)o2)cc1)C(F)(F)F [Example 75, 2,5-Bis(4-trifluoromethylsulfonamidophenyl)-(1,3,4)oxadiazole] | 11.5 | 12.8 | 2.9 | – | – | – | –
CC(C)(c1ccc(NS(=O)(=O)C(F)(F)F)cc1)c1ccc(C(C)(C)c2ccc(NS(=O)(=O)C(F)(F)F)cc2)cc1 [Example 76] | 8.4 | 12.9 | 6.4 | – | – | – | –
Nc1ccc(Oc2ccc(Oc3ccc(N)cc3)cc2)cc1 [NH2] | – | – | – | > 100 | > 100 | > 100 | –

From patent US6596772B1, “Phosphate mimics and methods of treatment using phosphatase inhibitors” (Sugen, Inc., priority 1999, dated 2003)
